# Results reported in patent US10695324B2, “Treatment for wolfram syndrome and other endoplasmic reticulum stress disorders” (Washington University, priority 2014, dated 2020).
# Ends that are not written are not given here. Peptide text beside a SMILES is read from it. * marks the point of attachment. Cbz = O=C(OCc1ccccc1)*
# Legend:
# [1] = system: CAPNS1 protein in HEK293T cells ectopically expressing WFS2; experiment: CAPNS1 protein level after proteasome inhibition; assay type: cell-based; settings: 2 μM
# Experimental: To find out whether WFS2 regulates CAPNS1 stability through the ubiquitin-proteasome pathway, HEK293T cells ectopically expressing WFS2 were treated with a proteasome inhibitor, MG132 (2 μM), and then the CAPNS1 protein level was measured.
# [2] = system: MIN6 cells transfected with siRNA against WFS2; experiment: WFS2-knockdown mediated cell death, cleaved caspase 3 immunoblotting; assay type: cell-based, rodent; settings: β cell line; 100 μM for 12 hours, 36 hours post-transfection
# Experimental: (§1) Neuro2a and MIN6 cells were transfected with siRNA against WFS2 or a control scrambled siRNA (Cont.). After 36 hours post-transfection, cells were untreated or treated with 100 μM calpeptin for 12 hours. Cleaved caspase 3 and actin levels were assessed by immunoblotting (FIG. 5A, left panel). Quantified levels of cleaved caspase-3 are shown in FIG. 5A, right panel (n=3, *P<0.05). Additionally, early stage apoptosis was monitored by Annexin V staining followed by flow cytometry, FIG. 5C. INS-1 832/13 cells were transfected with scrambled siRNA and WFS2 siRNA. After 24 hours post-transfection, cells were untreated or treated with 5 μM calpeptin for 24 hours. Cleaved caspase-3, WFS2, and actin levels were monitored by immunoblotting (FIG. 5D, left panel) and quantified (FIG. 5D, right panel) (n=3, *P<0.05).
# [3] = system: INS-1 832/13 cells transfected with WFS2 siRNA; experiment: WFS2-knockdown mediated cell death, cleaved caspase-3 immunoblotting; assay type: cell-based, rat; settings: β cell line; 5 μM for 24 hours, 24 hours post-transfection
# Experimental: as §1
# [4] = system: Neuro2a cells transfected with siRNA against WFS2; experiment: WFS2-knockdown mediated cell death, cleaved caspase 3 immunoblotting and Annexin V staining; assay type: cell-based, mouse; settings: neuronal cell line; 100 μM for 12 hours, 36 hours post-transfection
# Experimental: Flow cytometry analyses (FACS) were performed with LSRII Flow Cytometer (BD Biosciences, San Jose, Calif.) at the FACS core facility of Washington University School of Medicine Neural progenitor cells or NSC34 cells were plated in 24-well plates. After staining with Annexin V, cells were washed and resuspended in PBS. Cells were run using standard protocols, specifically Annexin V positive cell (i.e., apoptotic cells). The results were analyzed by FlowJo ver.7.6.3 (Ashland, Oreg.).
# as §1
# [5] = system: INS-1 832/13 cells expressing D1ER; experiment: ER calcium monitoring with D1ER (FRET/CFP ratio, FACS); assay type: cell-based, rat; settings: various concentrations, dose-dependent manner
# From the text: A β cell line was developed to monitor ER calcium levels under various conditions. The ER-localized calcium sensor D1ER was modified to contain two fluorescent proteins, CFP and YFP, which were inserted onto the N- and C-terminus, respectively. INS-1 832/13 cells were transfected with the modified D1ER calcium sensor. When Ca^2+ binds to the calmodulin, an intramolecular rearrangement occurs and brings CFP and YFP into close proximity resulting in a fluorescence resonance energy transfer (FRET) from CFP to YFP. The FRET signal allows ratiometric measurements of free ER Ca^2+ and changes in Ca^2+ using FRET/CFP ratio.
# INS-1 832/13 cells that stably express D1ER were treated with digitonin and ethylene glycol tetraacetic acid (EGTA) which causes the minimum value of FRET/CFP ratio, FIG. 10F. Additionally, cells treated with digitonin and CaCl2 led to the maximum value of FRET/CFP ratio, FIG. 10F.
# FRET/CFP ratio was decreased in INS-1 832/13 cells treated with thapsigargin in a dose-dependent manner (FIG. 10G). Additionally, the rates of ER calcium-depleted cells increased in cells treated with thapsigargin in a dose-dependent manner (FIG. 10G).
# [6] = system: INS-1 823/13 cells; experiment: Small-scale screen for prevention of thapsigargin mediated cell death, caspase 3/7-Glo luminescence; assay type: cell-based, rat; settings: pretreated 24 hours, then 2 nM thapsigargin overnight
# Experimental: INS-1 823/13 cells were pretreated with DMSO or drugs for 24 hours the incubated in media containing 2 nM of thapsigargin (TG) overnight. Apoptosis was detected by caspase 3/7-Glo luminescence. […] These eight compounds were PARP Inhibitor, dantrolene sodium, NS398, rapamycin, pioglitazone, calpain inhibitor III, docosahexaenoic acid (DHA), and GLP-1 (FIG. 8A).
# [7] = system: ER stress-mediated cell death; settings: have been shown (references); cited from earlier work
# [8] = system: ER-localized ryanodine receptors; settings: previous studies; cited from earlier work
# [9] = system: WFS1 silenced INS-1 832/13 cells; experiment: Protection of WFS1 silenced cells, immunoblotting of cleaved caspase-3 and cleaved spectrin; assay type: cell-based, rat; settings: 10 μM for 48 hours
# Experimental: In order to determine whether dantrolene conferred protection in WFS1 deficient cells and WFS1 silenced INS-1 832/13 cells were treated with dantrolene. INS-1 832/13 cells were transfected with scrambled siRNA or siRNA directed against WFS1. Cells were untreated or treated with 10 μM dantrolene for 48 hours, then incubated in media containing 0.5 μM thapsigargin for 6 hours. Expression levels of cleaved caspase-3 under untreated and thapsigargin treated conditions (FIG. 9A, left panel) were quantified and shown in FIG. 9A, center and right panels (n=3, *P<0.05). Protein levels of cleaved spectrin, WFS1, and GAPDH were analyzed by immunoblotting (FIG. 9B, left panel) and quantified (FIG. 9B, right panel) (n=3, *P<0.05). […]
# [10] = system: INS1E cells; experiment: ER stress- and cytokine-induced β cell death, caspase 3/7 activity assay; settings: 100 nM
# From the text: A Caspase 3/7 assay (Promega, Madison, Wis.) was utilized to measure caspase-3 and -7 activities in various cell lines. The assay provides a proluminescent caspase-3/7 substrate, which contains the tetrapeptide sequence DEVD. This caspase-3/7 substrate can be added directly to cell lysates. The substrate is cleaved to release a aminoluciferin, which is a substrate for luciferase used in the production of light. The signal is proportional to caspase-3/7 activity.
# [11] = system: NSC34 cells; experiment: Cytoplasmic calcium levels by Fura-2 calcium indicator; assay type: cell-based; settings: 10 μM for 24 hours
# Experimental: (§2) First, the question of whether dantrolene could decrease cytoplasmic calcium levels was tested. […] and NSC34 cells were untreated or treated with 10 μM dantrolene for 24 hours. Cytoplasmic calcium levels were measured by Fura-2 calcium indicator over a period of 5 minutes. Thapsigargin (1 μM) was added at time 0. […] Next, it was necessary to determine if dantrolene could restore cytosolic calcium levels in WFS1-deficient cells.
# [12] = system: INS-1 832/13 cells; experiment: as above; assay type: cell-based, rat; settings: 10 μM for 24 hours
# Experimental: as §2
# [13] = system: WFS1-knockdown NSC34 cells; experiment: Protection of WFS1-knockdown cells, immunoblotting of cleaved caspase-3 and cleaved spectrin; assay type: cell-based; settings: 10 μM for 24 hours
# Experimental: NSC34 cells were transfected with scrambled siRNA or siRNA directed against WFS1, then untreated or treated with 10 μM dantrolene for 24 hours.
# [14] = cited from earlier work
# [15] = system: INS-1 832/13 cells transfected with WFS2 siRNA; experiment: Cell death mediated by WFS2 knockdown, cleaved caspase-3 immunoblotting; assay type: cell-based, rat; settings: 10 μM for 24 hours, 24 hours post transfection
# Experimental: (§3) In to determine if danotrolene affects ER calcium homeostasis, cells were treated with ryanodine or dantrolene. INS-1 832/13 cells were transfected with scrambled siRNA or WRFS1 siRNA. After 24 hours post-transfection, cells were untreated or treated with 2 μM ryanodine for 24 hours. Cleaved caspase-3, WFS1, and GAPDH levels were monitored by immunoblotting (FIG. 10A, left panel) and quantified ([…], right panel). INS-1 832/13 cells (FIG. 10B) and NSC34 cells (FIG. 10C) were transfected with scrambled siRNA or WRFS2 siRNA. After 24 hours post transfection, cells were untreated or treated with 10 μM dantrolene for 24 hours. Cleaved caspase-3, WFS2, and GAPDH levels were monitored by immunoblotting.
# [16] = system: NSC34 cells transfected with WFS2 siRNA; experiment: as above; assay type: cell-based; settings: 10 μM for 24 hours, 24 hours post transfection
# Experimental: as §3
# [17] = system: neural progenitor cells derived from iPS cells of a Wolfram syndrome subject; experiment: Thapsigargin-induced cell death in patient neural progenitor cells, cleaved caspase-3 immunoblotting; settings: pretreated 10 μM for 48 hours, then 0.125 μM thapsigargin for 20 hours
# From the text: To generate iPS cells, fibroblasts were obtained from non-affected controls and subjects with Wolfram syndrome. […] To generate neural progenitor cells, iPSCs were counted and plated ˜50,000 per well in a 96-well plate to form uniform embryoid bodies. After 5 days, embryoid bodies were suspended in neural induction media and replated as adherent cultures. Fresh media was applied every day for 7 days. Neural rosettes formed in these cultures were selected and plated. Plated rosettes were fed with neural induction media every day for 4-7 days to obtain neural progenitor cells.
# Wolfram patient neural progenitor cells were pretreated with or without 10 μM dantrolene for 48 hours.
# [18] = thapsigargin 1 μM added at time 0, Fura-2 over 5 minutes
compound,measurement,setting,value
CC(C)C[C@@H](C=O)NC(=O)[C@H](CC(C)C)NC(=O)[C@H](CC(C)C)NC(=O)OCc1ccccc1 [MG132] (Cbz-Leu-Leu-Leu-aldehyde),CAPNS1 protein level,[1],stabilized CAPNS1 protein
CCCC[C@@H](C=O)NC(=O)[C@H](CC(C)C)NC(=O)OCc1ccccc1 [calpeptin],WFS2-knockdown mediated cell death,[2],prevented WFS2-knockdown mediated cell death
same,WFS2-knockdown mediated cell death,[3],prevented WFS2-knockdown mediated cell death
same,WFS2-knockdown mediated cell death,[4],prevented WFS2-knockdown mediated cell death
C/C=C(/C)C(=O)O[C@H]1C(C)=C2[C@H]([C@@H]1OC(=O)CCCCCCC)[C@@](C)(OC(C)=O)C[C@H](OC(=O)CCC)[C@@]1(O)[C@H]2OC(=O)[C@@]1(C)O [thapsigargin],FRET/CFP ratio (ER calcium),[5],decreased
same,rates of ER calcium-depleted cells,[5],increased
CS(=O)(=O)Nc1ccc([N+](=O)[O-])cc1OC1CCCCC1 [NS398],suppression of thapsigargin mediated cell death (apoptosis by caspase 3/7-Glo luminescence),[6]; 10 μM (Table 3),significantly suppress thapsigargin mediated cell death
"GLP-1: Glucagon-like peptide-1; FDA approved drug (HAEGTFTSDVSSYLEGQAAKEFIAWLVKGR; ends and bridges not checked; UniProt P01275 98-127, looked up)",protection against ER stress-mediated cell death,[7],confer protection against ER stress-mediated cell death
same,suppression of thapsigargin mediated cell death (apoptosis by caspase 3/7-Glo luminescence),[6]; 50 nM (Table 3),significantly suppress thapsigargin mediated cell death
"O=C1CN(/N=C/c2ccc(-c3ccc([N+](=O)[O-])cc3)o2)C(O)=N1 [dantrolene, 1-[[5-(4-nitrophenyl)-2-furyl]methylideneamino]imidazolidine-2,4-dione]",leakage of calcium from the ER to the cytosol,[8],suppresses leakage of calcium from the ER to the cytosol
same,suppression of thapsigargin mediated cell death (apoptosis by caspase 3/7-Glo luminescence),[6]; 10 μM (Table 3),significantly suppress thapsigargin mediated cell death
same,calpain activity (cleaved spectrin),[9]; then 0.5 μM thapsigargin for 6 hours,suppression of apoptosis and calpain activity
same,apoptosis (cleaved caspase-3),[9]; then 0.5 μM thapsigargin for 6 hours or untreated,suppression of apoptosis
same,cytokine induced β cell death,[10]; inflammatory cytokine 50 ng/mL,prevented
same,thapsigargin-induced β cell death,[10]; thapsigargin 10 nM for 24 hours,prevented
same,cytosolic calcium levels,[11]; [18],decreased cytosolic calcium levels
same,cytosolic calcium levels in WFS1-knockdown cells,[11]; WFS1-knockdown NSC34 cells,restored cytosolic calcium levels
same,cytosolic calcium levels,[12]; [18],decreased cytosolic calcium levels
same,cytosolic calcium levels in WFS1-knockdown cells,[12]; WFS1-knockdown INS-1 832/13 cells,restored cytosolic calcium levels
same,calpain activation (cleaved spectrin),[13],prevented calpain activation
same,cell death (cleaved caspase-3),[13],prevented calpain activation and cell death
same,solubility in water,[14],poorly soluble in water
same,cell death mediated by WFS2 knockdown,[15],did not block cell death mediated by WFS2 knockdown
same,cell death mediated by WFS2 knockdown,[16],did not block cell death mediated by WFS2 knockdown
same,thapsigargin-induced cell death (cleaved caspase-3),[17],could prevent cell death
CC(C)[C@H](NC(=O)OCc1ccccc1)C(=O)N[C@H](C=O)Cc1ccccc1 [calpain inhibitor III] (Cbz-Val-Phe-aldehyde),suppression of thapsigargin mediated cell death (apoptosis by caspase 3/7-Glo luminescence),[6]; 1 μM (Table 3),significantly suppress thapsigargin mediated cell death
